The text below walks through data of patent US9115092B2, “Substituted quinazoline and pyrido-pyrimidine derivatives” (Asana Biosciences, LLC, priority 2010, dated 2015).

One assay relates to PC3 cells. Nature of the assay: XTT assay for cell viability, PC3 cells. In kind it is cell-based, human. The note with it: Homo sapiens, PC-3, cell viability. A digest of the protocol:
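PC3 cells seeded at 1000 cells/well, grown 24 h, then exposed to serial dilutions of compound for 96 h. Viability read by XTT dye at 37° C, absorbance 465 nm. EC50 from sigmoidal dose-response fit.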
A general note: Tetrazolium dyes change colour on reduction, which living cells bring about.

For another assay, the target named is T1, mTOR kinase (Homo sapiens, UniProt P42345).
T1 construct: purchased Millipore, USA
As to the kind of experiment: mTOR kinase TR-FRET assay. The class given is biochemical. The following applies: read-out: mTO R. In outline:
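Compounds preincubated 60 min with mTOR (5 ng) in HEPES pH 7.5, EGTA, MnCl2; ULight-p70 S6K Thr389 peptide (50 nM) and ATP (20 μM) then added, 60 min at room temperature. EDTA-stopped, Eu-anti-phospho antibody detection by TR-FRET (665/615 nm); IC50 from variable-slope sigmoidal fit.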
For orientation: In TR-FRET formats the signal depends on donor and acceptor labels being close together.

In assay [1] the target is T2, PI3Kα (wild-type), P110/P85α (Homo sapiens, UniProt P42336).
T2 construct: made in house; host or cells: SF9 insect cells
Nature of the assay: PI3 Kinase TR-FRET assay, PI3Kα (wild-type). In kind it is biochemical. In outline: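 Sf9-expressed His-purified P110/P85α (5 ng) preincubated 60 min RT with compound and PIP2 in buffer with 40 mM MgCl2, 5 mM DTT; reaction started with ATP (PIP2 and ATP both 10 μM), 30 min RT. PIP3 detected by TR-FRET displacement, 665/615 nm ratio; IC50 from dose-response curves.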

Assay [2] relates to pS6RP(S235/236), PC3 cells. As to the kind of experiment: In-cell Western assay, pS6RP(S235/236) in PC3 cells. In kind it is cell-based, human. The following applies: Homo sapiens, PC-3, In-cell Western. In outline:
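Overnight-seeded PC3 cells were treated 2 h with serially diluted compound, then fixed and immunostained with phospho-specific primary antibodies and Eu-labelled secondary. Time-resolved Eu signal read at 615 nm (ex 340 nm), normalised by Hoechst 33258 staining (ex 355/em 460 nm); IC50 from sigmoidal dose-response fit.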

The structures appear in SMILES notation. Bounds are passed on as bounds.

T2 sequence (P42336 whole entry): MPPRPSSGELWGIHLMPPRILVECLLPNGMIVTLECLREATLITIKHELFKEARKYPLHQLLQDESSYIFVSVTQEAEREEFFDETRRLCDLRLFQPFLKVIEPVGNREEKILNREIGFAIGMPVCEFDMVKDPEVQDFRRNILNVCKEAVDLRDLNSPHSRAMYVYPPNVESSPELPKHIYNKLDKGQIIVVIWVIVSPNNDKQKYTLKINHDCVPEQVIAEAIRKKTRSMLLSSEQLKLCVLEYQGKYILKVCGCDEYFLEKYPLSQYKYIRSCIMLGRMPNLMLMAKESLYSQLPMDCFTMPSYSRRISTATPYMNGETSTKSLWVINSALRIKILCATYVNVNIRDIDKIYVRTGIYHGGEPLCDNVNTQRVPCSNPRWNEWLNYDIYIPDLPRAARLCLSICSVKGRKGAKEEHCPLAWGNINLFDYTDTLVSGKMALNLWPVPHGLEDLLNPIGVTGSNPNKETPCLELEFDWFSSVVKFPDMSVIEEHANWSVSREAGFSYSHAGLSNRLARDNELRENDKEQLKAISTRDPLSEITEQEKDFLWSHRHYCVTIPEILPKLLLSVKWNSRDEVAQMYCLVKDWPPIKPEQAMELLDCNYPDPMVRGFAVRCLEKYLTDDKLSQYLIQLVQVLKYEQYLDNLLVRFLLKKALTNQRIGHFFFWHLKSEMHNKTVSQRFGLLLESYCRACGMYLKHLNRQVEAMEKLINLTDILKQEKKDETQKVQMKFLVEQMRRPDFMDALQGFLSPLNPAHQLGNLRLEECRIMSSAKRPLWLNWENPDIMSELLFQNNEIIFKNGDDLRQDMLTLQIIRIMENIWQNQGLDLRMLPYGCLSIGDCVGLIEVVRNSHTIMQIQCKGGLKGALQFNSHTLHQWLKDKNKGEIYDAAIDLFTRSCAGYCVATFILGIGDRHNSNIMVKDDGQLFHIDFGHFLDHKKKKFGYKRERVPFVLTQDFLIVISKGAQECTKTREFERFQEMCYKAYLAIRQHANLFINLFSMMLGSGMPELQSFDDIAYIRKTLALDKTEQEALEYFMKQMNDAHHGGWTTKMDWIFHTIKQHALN
T2 sequence (P27986 whole entry partner): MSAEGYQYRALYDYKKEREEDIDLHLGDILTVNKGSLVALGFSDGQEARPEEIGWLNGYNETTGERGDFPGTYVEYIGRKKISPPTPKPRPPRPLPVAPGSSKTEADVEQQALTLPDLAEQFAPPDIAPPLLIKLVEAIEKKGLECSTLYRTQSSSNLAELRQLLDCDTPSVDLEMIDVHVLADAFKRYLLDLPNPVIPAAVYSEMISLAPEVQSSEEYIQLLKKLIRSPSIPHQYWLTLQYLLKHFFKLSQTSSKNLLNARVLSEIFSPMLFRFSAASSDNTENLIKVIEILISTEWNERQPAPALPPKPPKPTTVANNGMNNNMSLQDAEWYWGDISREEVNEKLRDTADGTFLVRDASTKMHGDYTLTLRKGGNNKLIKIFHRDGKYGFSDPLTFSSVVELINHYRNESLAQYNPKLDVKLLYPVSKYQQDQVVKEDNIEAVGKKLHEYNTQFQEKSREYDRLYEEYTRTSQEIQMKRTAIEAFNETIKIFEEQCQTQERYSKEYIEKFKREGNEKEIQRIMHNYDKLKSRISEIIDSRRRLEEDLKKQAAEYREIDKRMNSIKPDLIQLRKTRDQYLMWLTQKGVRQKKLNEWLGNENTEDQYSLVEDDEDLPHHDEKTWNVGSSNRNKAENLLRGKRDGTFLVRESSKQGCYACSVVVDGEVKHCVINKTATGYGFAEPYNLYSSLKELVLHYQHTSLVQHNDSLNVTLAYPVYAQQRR

`CN(C)Cc1ccc(-c2ccc3c(N4CCOCC4)nc(-c4ccc(NC(=O)Nc5ccc(C(=O)N(C)C)cc5)cc4)nc3c2)o1` [Example 190, 4-(3-(4-(7-(5-((dimethylamino)methyl)furan-2-yl)-4-morpholino-quinazolin-2-yl)phenyl)ureido)-N,N-dimethyl-benzamide]: the IC50 in the assay with PC3 cells was 201 to 10000 nM; on mTOR kinase it was below 50 nM; in assay [1] it was 50 to 200 nM; in assay [2] it was 201 to 10000 nM.

With `Cc1ccc(-c2ccc3c(N4CCOCC4)nc(-c4ccc(NC(=O)Nc5ccc(C(=O)N6CCC(N(C)C)CC6)cc5)cc4)nc3c2)o1` [Example 191, 1-(4-(4-(dimethylamino)piperidine-1-carbonyl)phenyl)-3-(4-(7-(5-methylfuran-2-yl)-4-morpholino-quinazolin-2-yl)phenyl)urea], the IC50 with PC3 cells fell in the range of 201 to 10000 nM; at mTOR kinase, 50 to 200 nM; in assay [1], 201 to 10000 nM; in assay [2], 201 to 10000 nM.

Turning to `Cc1ccncc1-c1ccc2c(N3CCOCC3)nc(-c3ccc(NC(=O)Nc4ccc(C(=O)N5CCC(N(C)C)CC5)cc4)cc3)nc2c1` [Example 193, 1-(4-(4-(dimethylamino)piperidine-1-carbonyl)phenyl)-3-(4-(7-(4-methylpyridin-3-yl)-4-morpholino-quinazolin-2-yl)phenyl)urea], the IC50 was 201 to 10000 nM in the assay on PC3 cells, below 50 nM on mTOR kinase, below 50 nM in assay [1] and 201 to 10000 nM in assay [2].

Take `N[C@H]1CCN(C(=O)c2ccc(NC(=O)Nc3ccc(-c4nc(N5CCOCC5)c5ccc(-c6cncnc6)cc5n4)cc3)cc2)C1` [Example 194, (S)-1-(4-(3-aminopyrrolidine-1-carbonyl)phenyl)-3-(4-(4-morpholino-7-(pyrimidin-5-yl)quinazolin-2-yl)phenyl)urea]: the IC50 is 201 to 10000 nM in the assay with PC3 cells, below 50 nM at mTOR kinase, below 50 nM in assay [1] and 201 to 10000 nM in assay [2].

Turning to `N[C@@H]1CCN(C(=O)c2ccc(NC(=O)Nc3ccc(-c4nc(N5CCOCC5)c5ccc(-c6cncnc6)cc5n4)cc3)cc2)C1` [Example 197, (R)-1-(4-(3-aminopyrrolidine-1-carbonyl)phenyl)-3-(4-(4-morpholino-7-(pyrimidin-5-yl)quinazolin-2-yl)phenyl)urea], the IC50 with PC3 cells is 201 to 10000 nM; at mTOR kinase, below 50 nM; in assay [1], below 50 nM; in assay [2] it was 201 to 10000 nM.

For `Cc1ccc(-c2ccc3c(N4CCOCC4)nc(-c4ccc(NC(=O)Nc5ccc(C(=O)NCCN(C)C)cc5)cc4)nc3c2)o1` [Example 201, N-(2-(dimethylamino)ethyl)-4-(3-(4-(7-(5-methylfuran-2-yl)-4-morpholino-quinazolin-2-yl)phenyl)ureido)-benzamide], the IC50 with PC3 cells is 501 to 5000 nM; at mTOR kinase, below 50 nM; in assay [1] it was 50 to 200 nM; in assay [2] it was 501 to 5000 nM.

`Cn1cc(-c2cnc3c(N4CCOCC4)nc(-c4ccc(NC(=O)Nc5ccc(C(N)=O)cc5)cc4)nc3c2)cn1` [Example 202, 4-(3-(4-(7-(1-methyl-1H-pyrazol-4-yl)-4-morpholino-pyrido[3,2-d]pyrimidin-2-yl)phenyl)ureido)-benzamide]: the IC50 with PC3 cells was 201 to 10000 nM; at mTOR kinase, below 50 nM; in assay [1], below 50 nM; in assay [2], 201 to 10000 nM.

Take `CN(C)C(=O)c1ccc(NC(=O)Nc2ccc(-c3nc(N4CCOCC4)c4ccc(-c5ccc(CO)o5)cc4n3)cc2F)cc1` [Example 203, 4-(3-(2-fluoro-4-(7-(5-(hydroxymethyl)furan-2-yl)-4-morpholino-quinazolin-2-yl)phenyl)ureido)-N,N-dimethyl-benzamide]: the IC50 in the assay on PC3 cells is 201 to 10000 nM; on mTOR kinase it was below 50 nM; in assay [1], below 50 nM; in assay [2], 201 to 10000 nM.
